Results on 20 compounds are retold here after patent publication US4170640A, “Antibiotic mixtures” (priority 1977, dated 1979).

Assay [1] deals with E. coli B. The assay is described as follows: Amplification of the antibacterial (cell-killing) activity of phleomycin in stationary phase cultures, viable cell counts. The assay is classed as cell-based. The note with it: concentration of optimum activity after phleomycin pretreatment (2 μg/ml, 30 min, 37°); 120 min treatment. As for the experimental part: The ability of the compounds to potentiate the cell-killing effects of phleomycin was measured by the following procedure. Stationary phase cultures of E. coli B, with or without the compounds under test, were resuspended in growth medium containing phleomycin (2 μg/ml) and incubated at 37° for 30 minutes. The cells were then membrane filtered (0.45 μm pore size; 2.5 cms), washed with growth medium (20 μg/ml) and resuspended in growth medium (20 μg/ml) at 37° C. containing various concentrations, between 10^-10 M and 10^-2 M, of the compound under test. As a control, bacteria were exposed to the same range of concentrations of each compound but without the phleomycin pretreatment. To determine viable cell numbers aliquots were taken from each cell suspension after 120 minutes treatments, plated on agar medium and incubated overnight at 37° C. All operations with amplifying agents were carried out in near dark conditions.
Compounds were designated as active when the increase in activity with the combined treatment was greater than could be explained by the effects of the two compounds when administered separately.

The subject of a further assay is Walker rat carcinoma 256. The assay is described as follows: Survival of rats bearing Walker rat carcinoma 256 ascites tumour, treated with phleomycin plus amplifier. The conditions noted are these: for amplification of the activity of phleomycin (survival of tumour-bearing rats): doses as in Table 2. In kind it is in vivo, Sprague Dawley rats. The method, then: Walker rat carcinoma 256 as the ascites form was passaged in female Sprague Dawley rats. […] Intraperitoneal injections of 0.1 ml (10^6 viable cells) of the suspension were then made into test groups of 6-8 male Sprague Dawley rats.
Phleomycin dissolved in phosphate-buffered saline was given to animals in the test groups as 0.1 ml intraperitoneal injections twice daily; each injection was followed by a 0.1 ml intraperitoneal injection of the prospective amplifier. The treatments were given for 5-10 days, at varying concentrations of the phleomycin and amplifier.
The method of evaluating the effectiveness of the various treatments was based on those used in the screening programme of the Drug Evaluation Branch, National Cancer Institute, National Institute of Health, Bethesda, Maryland, U.S.A. (Cancer Chemotherapy Reports, Vol. 3, No. 2, September 1972). Thus the effectiveness of the drug treatment was measured by the increased survival time, measured in days, of the treated animals over control ones which received no drugs. Dead animals were counted daily, and median survival times (MST) calculated for all groups. […] The ratios (test group median survival time) divided by (control group median survival time)× 100 (T/C) were calculated for all the test groups.

Assay [2] concerns E. coli B. The assay is described as follows: Amplification of the antibacterial (cell-killing) activity of phleomycin in stationary phase cultures, viable cell counts. In kind it is cell-based. The conditions noted are these: envisaged from present studies; phleomycin at about 1 mg/l (or mg/kg).
[3] abbreviates: 4,4'-bis(trimethylammonio)diphenylmethane dichloride 270 MKD alone (phleomycin 0), ×2 daily.
[4] abbreviates: phleomycin 4 MKD + 4,4'-bis(trimethylammonio)diphenylmethane dichloride 270 MKD, i.p. ×2 daily.
Setting [5] is: Auramin 0 7.6 MKD alone (phleomycin 0), ×2 daily.
The mark [6] stands for this setting: phleomycin 8 MKD + Auramin 0 7.6 MKD, i.p. ×2 daily.
Setting [7] is: Brilliant Green 640 MKD alone (phleomycin 0), ×2 daily.
[8] abbreviates: phleomycin 5 MKD + Brilliant Green 640 MKD, i.p. ×2 daily.
Setting [9] is: phleomycin 10 MKD + Brilliant Green 640 MKD, i.p. ×2 daily.
Where [10] appears, read: phleomycin 20 MKD + Brilliant Green 640 MKD, i.p. ×2 daily.
Where [11] appears, read: Crystal Violet 0.5 MKD alone (phleomycin 0), twice daily from days 2 to 10.
[12] abbreviates: phleomycin 4 MKD + Crystal Violet 0.5 MKD, i.p. twice daily from days 2 to 10.
Setting [13] is: Malachite Green 52 MKD alone (phleomycin 0), ×2 daily.
Where [14] appears, read: phleomycin 8 MKD + Malachite Green 52 MKD, i.p. ×2 daily.
Setting [15] is: Neutral Red 20 MKD alone (phleomycin 0), ×2 daily.
Setting [16] is: phleomycin 8 MKD + Neutral Red 20 MKD, i.p. ×2 daily.
[17] abbreviates: phleomycin 16 MKD + Neutral Red 20 MKD, i.p. ×2 daily.
Setting [18] is: phleomycin 32 MKD + Neutral Red 20 MKD, i.p. ×2 daily.

`C[N+](C)(C)c1ccc2cc3ccc([N+](C)(C)C)cc3c(-c3c4cc([N+](C)(C)C)ccc4cc4ccc([N+](C)(C)C)cc34)c2c1.[Cl-].[Cl-].[Cl-].[Cl-]` [2,2', 7,7'-tetrakis(trimethylammonio)-9,9'-dianthracene tetrachloride]: the “Optimum Concentration tested” value in the assay on E. coli B [1] was found to be 50 µM.
`Nc1cc2nc3ccccc3oc-2cc1=O` [2-aminophenoxazone]: the “Optimum Concentration tested” value with E. coli B [1] is 25 µM.
Still for that read-out and setting: with `CC[n+]1c(C=Cc2ccc(N(C)C)cc2)ccc2ccccc21.[Cl-]` [2-p-dimethylaminostyryl-N-ethyl-quinolinium chloride] the figure was 0.3 µM.
The same measure, in the same setting: with `C[N+](C)(C)c1ccc(-c2ccc([N+](C)(C)C)cc2)cc1.[Cl-].[Cl-]` [4,4'-bis(trimethylammonio)diphenyl-dichloride] the figure was 310 µM.
As for `C[N+](C)(C)c1ccc(Cc2ccc([N+](C)(C)C)cc2)cc1` [4,4'-bis(trimethylammonio)diphenylmethane], in the assay with E. coli B [1], the “Optimum Concentration tested” value came out at 29 µM. Further, in the assay with Walker rat carcinoma 256 (setting [3]), the MST turned out to be 8.0 days and the T/C stood at 100. Further, the “amplification of the activity of phleomycin (survival of tumour-bearing rats)” value (“amplification” below) with Walker rat carcinoma 256 is “amplified the activity of phleomycin”. In addition, in the assay on Walker rat carcinoma 256 (setting [4]), the MST was 10.0 days and the T/C came to 125. The “adequate concentration of amplifier in conjunction with phleomycin” value (shortened to “adequate concentration of amplifier”) in the assay with E. coli B [2] is listed as 10^-3 molar.
In the case of `CN(C)c1ccc(C(=N)c2ccc(N(C)C)cc2)cc1.Cl` [Auramin O], the “Optimum Concentration tested” value in the assay on E. coli B [1] turned out to be 3.3 µM. In the assay with Walker rat carcinoma 256 (setting [5]), the MST is listed as 9.5 days and the T/C is recorded as 95. In addition, the “amplification” value in the assay on Walker rat carcinoma 256 is “amplified the activity of phleomycin”. Besides, in the assay with Walker rat carcinoma 256 (setting [6]), the MST is 18 days and the T/C was above 180.
In the case of `CCN(CC)c1ccc(C(=C2C=CC(=[N+](CC)CC)C=C2)c2ccccc2)cc1.O=S(=O)([O-])O` [Brilliant Green], the “Optimum Concentration tested” value in the assay on E. coli B [1] is 9.6 µM. The MST is listed as 9 days in the assay on Walker rat carcinoma 256 (setting [7]), 10 days with Walker rat carcinoma 256 (setting [8]), 11 days in the assay on Walker rat carcinoma 256 (setting [9]) and 11 days in the assay on Walker rat carcinoma 256 (setting [10]). For the same compound, the T/C in the assay on Walker rat carcinoma 256 (setting [7]) came to 112; with Walker rat carcinoma 256 (setting [8]), 125; in the assay with Walker rat carcinoma 256 (setting [9]) it was 138; in the assay with Walker rat carcinoma 256 (setting [10]), 138. In addition, in the assay with Walker rat carcinoma 256, the “amplification” value is reported as “amplified the activity of phleomycin”.
`CN(C)c1ccc(C(=C2C=CC(=[N+](C)C)C=C2)c2ccc(N(C)C)cc2)cc1` [Crystal Violet]: in the assay with E. coli B [1], the “Optimum Concentration tested” value was 2.4 µM. In addition, in the assay on Walker rat carcinoma 256 (setting [11]), the MST is reported as 12.5 days and the T/C worked out at 104. The “amplification” value in the assay with Walker rat carcinoma 256 was “amplified the activity of phleomycin”. For the same compound, in the assay on Walker rat carcinoma 256 (setting [12]), the MST is listed as above 30 days and the T/C was 250. Besides, in the assay on E. coli B [2], the “adequate concentration of amplifier” value is reported as 10^-7 molar.
Consider `CC[n+]1c(-c2ccccc2)c2cc(N)ccc2c2ccc(N)cc21.[Br-]` [Ethidium bromide], for which the “Optimum Concentration tested” value with E. coli B [1] was determined as 13 µM. The “adequate concentration of amplifier” value with E. coli B [2] is recorded as 10^-4 molar.
As to `CN(C)c1ccc(C(=C2C=CC(=[N+](C)C)C=C2)c2ccccc2)cc1.[Cl-]` [Malachite green], the “Optimum Concentration tested” value with E. coli B [1] came out at 3 µM. Further, in the assay on Walker rat carcinoma 256 (setting [13]), the MST is reported as 8 days and the T/C was 100. Also, the “amplification” value in the assay with Walker rat carcinoma 256 is reported as “amplified the activity of phleomycin”. Further, in the assay with Walker rat carcinoma 256 (setting [14]), the MST is reported as 16.5 days and the T/C turned out to be 206.
`CN(C)c1ccc2nc3ccc(=[N+](C)C)cc-3sc2c1.[Cl-]` [Methylene Blue]: the “Optimum Concentration tested” value with E. coli B [1] is 13 µM.
`Cc1cc2nc3ccc(N(C)C)cc3nc2cc1N.Cl` [Neutral Red]: in the assay with E. coli B [1], the “Optimum Concentration tested” value is 33 µM. Also, the “enhancement of the ability of phleomycin to prolong the survival of rats carrying tumours” value in the assay with Walker rat carcinoma 256 (Neutral Red 20 μg/kg/day with phleomycin at 8, 16 or 32 micrograms/kg/day) is listed as “active”. Moreover, the MST in the assay with Walker rat carcinoma 256 (setting [15]) was 11.0 days; with Walker rat carcinoma 256 (setting [16]), 20 days; with Walker rat carcinoma 256 (setting [17]) it was above 30 days; in the assay with Walker rat carcinoma 256 (setting [18]), above 30 days. For the same compound, the T/C in the assay with Walker rat carcinoma 256 (setting [15]) was 79; in the assay with Walker rat carcinoma 256 (setting [16]) it was 143; in the assay on Walker rat carcinoma 256 (setting [17]), above 214; in the assay with Walker rat carcinoma 256 (setting [18]) it was above 214.
For the compound `CC[N+](CC)=c1ccc2nc3c(cc(N)c4ccccc43)oc-2c1` [Nile Blue], the “Optimum Concentration tested” value in the assay with E. coli B [1] turned out to be 2.7 µM.
The same measure, in the same setting: under `CN(C)c1ccc2cc3ccc(=[N+](C)C)cc-3oc2c1.[Cl-]` [Pyronin Y] stands 170 µM.
Same read-out and setting: with `CCN(CC)CCCC(C)Nc1c2ccc(Cl)cc2nc2ccc(OC)cc12` (stereo not shown) [Quinacrine] the figure was 39 µM; with `CCNc1ccc2c(-c3ccccc3C(=O)O)c3ccc(=[N+](CC)CC)cc-3oc2c1.[Cl-]` [Rhodamine G], 120 µM.
Same read-out and setting: under `Cc1cc2nc3cc(C)c(N)cc3[n+](-c3ccccc3)c2cc1N.[Cl-]` [Safranin T] stands 14 µM; under `Cc1cc2nc3ccc(N(C)C)cc3[s+]c2cc1N.[Cl-]` [Toluidine Blue], 16 µM; under Brilliant Cresol Blue, 340 µM.
Methyl Violet: the “Optimum Concentration tested” value with E. coli B [1] came out at 1.6 µM.
